In patent US9155723B2, “Anti-CXCR4 as a sensitizer to cancer therapeutics” (THE GENERAL HOSPITAL CORPORATION, priority 2010, dated 2015):
Entries after “also recorded” stand apart in the source; their conditions may differ. Where two headings read alike, the source gives them in different places.

Legend:
CXCL12 = conditions: cited from earlier work
CD11b+ myeloid BMDCs = assay: In vitro migration assay (Boyden chamber), CD11b+ myeloid BMDCs; format: cell-based, mouse
Description: (§1) Bone marrow cells were collected in heparin-mixed PBS. The cellular filtrate was washed and a layer containing mononuclear BM cells was separated using Histopaque-1083 (Sigma). For the migration assay, BM cells were separated by CD11b, F4/80, or Gr-1 magnetic microbeads (MACS-beads; Miltenyi Biotech) from VEGFR1TK+/+ and VEGFR1TK−/− mice as per manufacturer's protocol. These cells were incubated with recombinant proteins for migration assays
(§2) The migration of mononuclear CD11b+ BMDCs (2×10^6 cells per mL), F4/80+ BMDCs (8×10^5 cells per mL), and Gr-1+ BMDCs (8×10^5 cells per mL) was evaluated using a chemotaxis Boyden chamber (Neuroprobe). The upper and lower wells were separated by a […] pore size polyvinylpyrrolidone-free polycarbonate filter (Nucreopore; Costar). […] A 50-μl aliquot of the cell suspension was seeded in the upper wells and incubated for 3 h at 37° C. with 5% CO2. The number of cells that migrated through the membrane was counted.
To reveal the mechanism of action of VEGFR1 and CXCR4 in myeloid BMDCs, bone marrow cells were harvested from C57BL/6 and VEGFR1 TK−/− mice and purified mononuclear myeloid BMDCs using magnetic separation for CD11b+ cells.

54A human lung tumors = conditions: AMD3100 osmotic pumps alone for 2 weeks, no irradiation; 54A tumors
Text: (§3) 54A human lung tumors were xenografted in male athymic NCr/Sed nude (nu/nu) mice, and MCa8 mouse mammary carcinomas were implanted in female syngeneic FVB mice (both subcutaneously in the hind limb; refs. 3, 11). To detect specific BMDC populations in tumors (i.e., Tie2^+CD11b^− EPCs and Tie2^+CD11b^+ TEMs), irradiated wild-type FVB mice were irradiated with 9 Gy of whole-body irradiation (WBI) followed by restorative bone marrow transplantation (BMT) from Tie2-GFP-FVB donors to create chimeric wild-type/Tie2-GFP-BMT mice (3). MCa8 tumors were implanted in these mice 6 weeks post-BMT.
(§4) Tumor size was measured with a caliper at least thrice a week. When a tumor reached 5.5 mm in mean diameter, the mouse was randomized to a treatment group. Tumors were γ-irradiated using the same dose delivered either locally alone or locally plus a sublethal WBI dose of 6 Gy. […] Unsorted BMDCs (from femurs and tibias of one tumor- and treatment-naïve donor to two recipients) or fluorescence-activated cell-sorted Sca1^−CD11b^+ (150,000-200,000 cells) or Sca1^+CD11b^+ (25,000-50,000) BMDCs (from one donor to one recipient) were i.v. infused in mice receiving LI plus WBI. […] Therapeutic efficacy was measured as the time taken for tumors to grow to 7.5 mm in diameter (i.e., 2.5-fold increase compared with the pretreatment volume).

[1] = system: MCa8 mouse mammary carcinomas; conditions: AMD3100 osmotic pumps alone for 2 weeks, no irradiation; MCa8 tumors
Text: as §3, §4

Gr-1+ BMDCs = conditions: in vitro
Description: as §1, §2

TRAMP-C1 prostate tumors [2] = system: TRAMP-C1 prostate tumors
Description: (§5) AMD3100 was delivered by s.c. Alzet pumps containing 10 mg/mL AMD3100 in PBS at a dose of 60 μg/day, and pumps with PBS only were used as a control. The pumps were replaced every 2 wk.
(§6) Primary tumor tissues were fixed and frozen. Sections were stained with rat antibodies against mouse CD11b, MECA 32, Gr-1 (BD Pharmingen), and F4/80 (Serotec). Cy3- or FITC-conjugated secondary antibodies were used for the detection of signals by confocal microscopy. Slides were counterstained with DAPI for nuclear staining. The number of cells was quantified by measuring the area occupied by immunostained mononuclear cells normalized by the area of DAPI-stained nuclei (i.e., unitless). Phopho-p38 MAPK level was measured by Western blotting.
(§7) Primary tumor tissues were fixed in 4% paraformaldehyde at 4° C. for 2 h, dehydrated in 30% sucrose overnight, and embedded in optimal cutting temperature (OCT) compound in frozen samples for immunofluorescence histological analyses.

E0771 mammary tumors = system: E0771 mammary tumors
Description: as §5, §6, §7

TRAMP-C1 prostate tumors [3] = system: TRAMP-C1 prostate tumors; remark: listed apart in the source
Description: TRAMP-C1 tumors were implanted s.c. in male C57BL/6 mice, and E0771 tumors were implanted s.c. in female C57BL/6 mice after BMT and recovery and/or after BMT and Mx-Cre recombination (n=5-6 mice) (SI Materials and Methods). […] Lung tissue was isolated from mice 2-4 wk after removal of the primary tumor.
as §5
Mice ranging from 8 to 22 wk old [due to prior bone marrow transplantation (BMT) and/or recombination procedures] were used. […] All experiments were performed at least twice. Metastatic tumor volume was measure by the formula: V=small diameter×long diameter×number of microscopic metastases.

COc1cc2c(Oc3ccc4[nH]c(C)cc4c3F)ncnc2cc1OCCCN1CCCC1 [cediranib]
circulating CXCL12 (CXCL12; recurrent GBM, P < 0.001): therapy increases

CNC(=O)c1cc(Oc2ccc(NC(=O)Nc3ccc(Cl)c(C(F)(F)F)c3)cc2)ccn1 [sorafenib]
circulating CXCL12 (CXCL12; advanced sarcoma, P < 0.01): therapy increases

C[S+]([O-])c1ccc(-c2nc(-c3ccncc3)c(-c3ccc(F)cc3)[nH]2)cc1 (centres unmarked) [SB203580]
migration of myeloid BMDCs (CD11b+ myeloid BMDCs; SB203580 1 μM, rVEGF or rCXCL12, irrespective of the chemotactic stimulus): significantly reduced the migration of myeloid BMDCs; also recorded: decreased migration of myeloid BMDCs

c1cc(CN2CCCNCCNCCCNCC2)ccc1CN1CCCNCCNCCCNCC1 [AMD3100, 1,1′-[1,4-phenylene-bis(methylene)]-bis-1,4,8,11-tetraazacyclotetradecane]
tumor growth (54A human lung tumors): did not affect tumor growth
tumor growth [1]: did not affect tumor growth
rCXCL12-induced migration of Gr-1+ BMDCs (Gr-1+ BMDCs): reversed
rCXCL12-induced migration of WT myeloid BMDCs (CD11b+ myeloid BMDCs; 1 μg/mL of AMD3100, rCXCL12 100 ng/mL, transwell assay): reversed
TAM infiltration (TRAMP-C1 prostate tumors [2]; AMD3100 alone, TRAMP-C1): did not affect the TAM infiltration
number of total myeloid BMDCs in tumor (TRAMP-C1 prostate tumors [2]; AMD3100 alone, TRAMP-C1): not in TRAMP-C1 tumors
Gr-1+ myeloid BMDC infiltration (TRAMP-C1 prostate tumors [2]; irrespective of VEGFR1-TK status in BMDCs, TRAMP-C1): decreased Gr-1+ myeloid BMDCs; also recorded: decreases Gr-1^+ BMDC infiltration
number of Gr-1+ BMDCs during early tumor growth (TRAMP-C1 prostate tumors [2]; small (4-mm) tumors, preventive setting, TRAMP-C1 model, 8-wk-old mice): significantly decreased the number of Gr-1+ BMDCs; also recorded: significantly reduces Gr-1^+ myeloid BMDC infiltration
TAM infiltration (E0771 mammary tumors; AMD3100 alone): did not affect the TAM infiltration
number of total myeloid BMDCs in tumor (E0771 mammary tumors; AMD3100 alone): decreased the number of total myeloid BMDCs
microvascular density (MVD) (E0771 mammary tumors; AMD3100 alone, prevention setting): decreased MVD
Gr-1+ myeloid BMDC infiltration (E0771 mammary tumors; irrespective of VEGFR1-TK status in BMDCs): decreased Gr-1+ myeloid BMDCs; also recorded: decreases Gr-1^+ BMDC infiltration
lung metastatic burden after primary tumor resection (TRAMP-C1 prostate tumors [3]; BMT-VEGFR1^TK−/− mice, TRAMP-C1): significantly reduced metastatic burden
growth of established tumors (TRAMP-C1 prostate tumors [3]; intervention setting, growth from 4 mm to ~1 cm, established TRAMP-C1): less substantial growth delay
